Test results from patent US20100311827A1, “Chlorogenic acid derivatives and their use as anti-fungal agents” (priority 2006, published 2010).
Converted amounts (≈) assume the structure as drawn. Like-named read-outs stand apart in the source and are kept apart here.

Assays:
[1] = test system: Candida krusei ATCC6258; test: Broth dilution anti-fungal susceptibility, MIC (as in Example 24); assay type: cell-based; conditions: for MIC: Pichia kudriavzevii, ATCC6258, read-out: MIC C. krusei
[2] = test system: Candida albicans (ATCC90028); test: Broth dilution anti-fungal susceptibility (NCCLS M27-A2), MIC; assay type: cell-based; conditions: for MIC: Candida albicans
Description: (§1) The anti-fungal activity of the compounds according to the invention were evaluated against Candida albicans (ATCC90028), Cryptococcus neoformans (ATCC32045), and Aspergillus fumigatus (ATCC13073) according to NCCLS guidelines (NCCLS reference method for broth dilution anti-fungal susceptibility testing of yeasts; approved standard-second edition, M27-A2, National Committee for Clinical Laboratory Standards, Villanova, Pa. 2003; and NCCLS reference method for broth dilution anti-fungal susceptibility testing of filamentous fungi; approved standard, M38-A, National Committee for Clinical Laboratory Standards, Villanova, Pa. 2002).
(§2) The medium required for the evaluation of anti-fungal activity was prepared as follows. RPMI 1640 broth+MOPS, pH adjusted and filter sterilized. Sabouraud Dextrose Agar (SDA) plates were used for growing fungi.
(§3) All test or candidate compounds were prepared as 5 mg/ml stock solutions in DMSO and further diluted according to the NCCLS guidelines with sterile water or appropriate diluent. A working stock of 256 μg/ml was used to prepare 1:2 serial dilutions in 96-well plates.
(§4) The inoculums of fungi were prepared by making a direct sterile water suspension of colonies/spores from SDA plates. 0.1% Tween 20 was used for A. fumigatus for better dispersal of spores in suspension. For C. albicans and C. neoformans overnight cultures were used. A. fumigatus required longer incubation. Each fungal suspension was adjusted to read between 70 and 75% transmittance at 530 nm (0.5 McFarland Standard). These suspensions were further diluted 1/1000 in appropriate broth for inoculating the 96-well plates.
(§5) All plates were incubated at 35° C. for the following times: 18 hours to 24 hours for C. albicans, 48 hours for A. fumigatus, and 48 to 72 hours for C. neoformans.

[3] = test system: brine shrimp; assay type: in vivo; conditions: for % BL (brine shrimp lethality): at 100 μg/ml
Description: The general in vitro toxicity of these compounds can be tested using the Brine Shrimp Lethality assay, as described in Mclaughlin, J. L. in Methods in Plant Biochemistry. Ed. K. Hostettmann, Academic Press, London, 1991; Vol. 6, pp. 1-32. Typically, candidate compounds are diluted in seawater to a suitable concentration and added to second instar larvae of Artemia salina. After a suitable period of time, for example 24 hours, the survivors are counted. In vitro acute toxicity testing of a compound of Formula I can also be performed using mammalian cell lines (see, for example, Ekwall, B., Ann. N.Y. Acad. Sci., (1983) 407:64-77). Selection of an appropriate cell line is dependent on the potential application of the candidate compound and can be readily determined by one skilled in the art.
To test the general toxicity of these compounds, Brine Shrimp Lethality assay was carried out according to Mclaughlin, J. L. in Methods in Plant Biochemistry. Ed. K. Hostettmann, Academic Press, London, 1991; Vol. 6, pp. 1-32. The compounds were tested at 100 μg/ml.

[4] = test system: Cryptococcus neoformans (ATCC32045); test: Broth dilution anti-fungal susceptibility (NCCLS M27-A2), MIC; assay type: cell-based; conditions: Table 1, MICs read at 80% inhibition, 35° C., 48 to 72 hours, tested 0.12 to 64 μg/ml
Description: as §1, §2, §3, §4, §5

[5] = test system: Aspergillus fumigatus (ATCC13073); test: Broth dilution anti-fungal susceptibility of filamentous fungi (NCCLS M38-A), MIC; assay type: cell-based; conditions: Table 1, MICs read at 80% inhibition, 35° C., 48 hours, tested 0.12 to 64 μg/ml
Description: as §1, §2, §3, §4, §5

[6] = Table 3 (Example 26), MICs read at 80% inhibition, 0.12 to 64 μg/ml
[7] = ATCC90028, Table 3 (Example 26, additional testing), MICs read at 80% inhibition, 0.12 to 64 μg/ml, read-out: MIC C. albicans
[8] = ATCC90028, Table 1, MICs read at 80% inhibition, 35° C., 18 to 24 hours, tested 0.12 to 64 μg/ml
[9] = comparison in words, from Table 3

| SMILES | MIC C. krusei [1, 6] [µg/mL] | MIC C. albicans ([2]; Table 3 (Example 26, additional testing), MICs read at 80% inhibition, 0.12 to 64 μg/ml) [µg/mL] | MIC [2, 8] [µg/mL] | MIC [4] [µg/mL] | MIC [5] [µg/mL] | MIC [1, 6] [µg/mL] | MIC [2, 7] [µg/mL] | % BL (brine shrimp lethality) [3] [%] | inhibitory activity against C. krusei compared to chlorogenic acid [1, 9] | inhibitory activity against C. albicans compared to chlorogenic acid [2, 9] | toxicity on brine shrimp compared to chlorogenic acid ([3]; comparison in words, from Table 2) |
| --- | --- | --- | --- | --- | --- | --- | --- | --- | --- | --- | --- |
| C[C@@H]1[C@H](O)[C@@H](C)/C=C/C=C/C=C/C=C/C=C/C=C/C=C/[C@H](O[C@@H]2O[C@H](C)[C@@H](O)[C@H](N)[C@@H]2O)C[C@@H]2O[C@](O)(C[C@@H](O)C[C@@H](O)[C@H](O)CC[C@@H](O)C[C@@H](O)CC(=O)O[C@H]1C)C[C@H](O)[C@H]2C(=O)O [Amphotericin B, reference compound] | 1 (≈ 1.08 µM) | 0.5 (≈ 0.541 µM) |  |  |  |  |  |  |  |  |  |
| O=C(/C=C/c1ccc(O)c(O)c1)O[C@@H]1C[C@](O)(C(=O)O)C[C@@H](O)[C@H]1O [Chlorogenic acid] |  |  |  |  |  | > 64 | > 64 | 100 |  |  |  |
| CCCCCCCCOc1ccc(NC(=O)C2(O)CC(OC(=O)/C=C/c3ccc(O)c(O)c3)C3OC(C)(C)OC3C2)cc1 (centres unmarked) [Compound 1] |  |  | 16 (≈ 26.8 µM) | 2 (≈ 3.35 µM) | > 64 |  |  | 100.0 |  |  |  |
| CCCCCCCCOc1ccc(NC(=O)C(COC(C)(C)C)NC(=O)C2(O)CC(OC(=O)/C=C/c3ccc(O)c(O)c3)C3OC(C)(C)OC3C2)cc1 (centres unmarked) [Compound 3] |  |  | 32 (≈ 43.2 µM) | 2 (≈ 2.7 µM) | > 64 |  |  | 31.3 |  |  |  |
| CCCCCCCCOc1ccc(NC(=O)C(NC(=O)C2(O)CC(OC(=O)/C=C/c3ccc(O)c(O)c3)C3OC(C)(C)OC3C2)C(C)OC(C)(C)C)cc1 (centres unmarked) [Compound 4] |  |  | 32 (≈ 42.4 µM) | 4 (≈ 5.3 µM) | > 64 |  |  | 6.2 |  |  |  |
| CCCCCCCCOc1ccc(NC(=O)C(CC(=O)OC(C)(C)C)NC(=O)C2(O)CC(OC(=O)/C=C/c3ccc(O)c(O)c3)C3OC(C)(C)OC3C2)cc1 (centres unmarked) [Compound 5] |  |  | > 64 | 2 (≈ 2.6 µM) | > 64 |  |  | 56.2 |  |  |  |
| CCCCCCCCOc1ccc(NC(=O)C(CCCNC(=O)OC(C)(C)C)NC(=O)C2(O)CC(OC(=O)/C=C/c3ccc(O)c(O)c3)C3OC(C)(C)OC3C2)cc1 (centres unmarked) [Compound 6] |  |  | > 64 | 2 (≈ 2.46 µM) | > 64 |  |  | 12.5 |  |  |  |

Now from value to molecule, other results behind:

| MIC C. krusei [1, 6] [µg/mL] | MIC C. albicans ([2]; Table 3 (Example 26, additional testing), MICs read at 80% inhibition, 0.12 to 64 μg/ml) [µg/mL] | MIC [2, 8] [µg/mL] | MIC [4] [µg/mL] | MIC [5] [µg/mL] | SMILES | MIC [1, 6] [µg/mL] | MIC [2, 7] [µg/mL] | % BL (brine shrimp lethality) [3] [%] | inhibitory activity against C. krusei compared to chlorogenic acid [1, 9] | inhibitory activity against C. albicans compared to chlorogenic acid [2, 9] | toxicity on brine shrimp compared to chlorogenic acid ([3]; comparison in words, from Table 2) |
| --- | --- | --- | --- | --- | --- | --- | --- | --- | --- | --- | --- |
|  |  | 8 (≈ 14.3 µM) | 2 (≈ 3.59 µM) | > 64 | CCCCCCCCOc1ccc(NC(=O)C2(O)CC(O)C(O)C(OC(=O)/C=C/c3ccc(O)c(O)c3)C2)cc1 (centres unmarked) [Compound 2] |  |  | 50.0 |  |  |  |
|  |  | 4 (≈ 5.71 µM) | 2 (≈ 2.85 µM) | > 64 | CCCCCCCCOc1ccc(NC(=O)C(COC(C)(C)C)NC(=O)C2(O)CC(O)C(O)C(OC(=O)/C=C/c3ccc(O)c(O)c3)C2)cc1 (centres unmarked) [Compound 7] |  |  | 31.1 |  |  |  |
|  |  | 2 (≈ 2.8 µM) | 1 (≈ 1.4 µM) | > 64 | CCCCCCCCOc1ccc(NC(=O)C(NC(=O)C2(O)CC(O)C(O)C(OC(=O)/C=C/c3ccc(O)c(O)c3)C2)C(C)OC(C)(C)C)cc1 (centres unmarked) [Compound 8] | 2 (≈ 2.8 µM) | 4 (≈ 5.6 µM) | 50.0 | more potent inhibitory activity | more potent inhibitory activity | less toxicity |
|  |  | 2 (≈ 2.74 µM) | 2 (≈ 2.74 µM) | > 64 | CCCCCCCCOc1ccc(NC(=O)C(CC(=O)OC(C)(C)C)NC(=O)C2(O)CC(O)C(O)C(OC(=O)/C=C/c3ccc(O)c(O)c3)C2)cc1 (centres unmarked) [Compound 9] |  |  | 37.5 |  |  |  |
|  |  | 2 (≈ 2.59 µM) | 1 (≈ 1.3 µM) | > 64 | CCCCCCCCOc1ccc(NC(=O)C(CCCNC(=O)OC(C)(C)C)NC(=O)C2(O)CC(O)C(O)C(OC(=O)/C=C/c3ccc(O)c(O)c3)C2)cc1 (centres unmarked) [Compound 10] |  |  | 25.0 |  |  |  |
